Here are results for nine compounds from paper PMC4774534 (Antiviral Research, 2015).

Counter-ions that a name gives are not always drawn. Like-named read-outs stand apart in the source and are kept apart here. Where only a bound is given, the exact number is not on record here.

For assay [1], the system named is SARS-CoV S pseudotyped virus on 293T-ACE2 cells. The format is cell-based. The settings on record: read-out: HIV-luc (SARS-CoV S) IC50.
For assay [2], the system named is EBOV pseudotyped virus on 293T-ACE2 cells. It is filed as cell-based. The settings on record: read-out: HIV-luc (EBOV GP) IC50.
Assay [3] deals with SARS-CoV Urbani strain in Vero 76 cells. It is filed as cell-based. The settings on record: read-out: CPE inhibition IC50.
The subject of assay [4] is SARS-CoV Toronto-2 strain in Vero 76 cells. It is filed as cell-based. The settings on record: read-out: CPE inhibition IC50.
Assay [5] concerns SARS-CoV Urbani strain in Vero 76 cells. The format is cell-based. The settings on record: read-out: Neutral red (NR) assay IC50.
In assay [6] the test system is SARS-CoV Toronto-2 strain in Vero 76 cells. It is filed as cell-based. The settings on record: read-out: Neutral red (NR) assay IC50.
The subject of assay [7] is SARS-CoV Urbani strain in Vero 76 cells. The format is cell-based. The settings on record: read-out: Virus yield reduction IC90.
Assay [8] concerns replication competent SARS-CoV (Urbani and Toronto-2). The format is cell-based.
For assay [9], the system named is Ebola pseudovirus on 293T-CD13 cells transiently expressing TMPRSS2. It is filed as cell-based, EBOV.
The subject of assay [10] is VSV-G pseudovirus on 293T-CD13 cells transiently expressing TMPRSS2. It is filed as cell-based.
Assay [11] relates to SARS-CoV Toronto-2 strain in Vero 76 cells. The format is cell-based. The settings on record: read-out: Virus yield reduction IC90.

What is called IC50 is the midpoint of a concentration-inhibition curve. On to `CCN1CCN(C(=O)N[C@@H](Cc2ccccc2)C(=O)N[C@H](/C=C/S(=O)(=O)c2ccccc2)CCc2ccccc2)CC1` [SMDC-256122, (2S)-N-[(1E,3S)-1-(benzenesulfonyl)-5-phenylpent-1-en-3-yl]-2-{[(E)-4-ethylpiperazine-1-carbonyl]amino}-3-phenylpropanamide], for which the 50% inhibitory concentration (IC50) worked out at 0.04 ± 0.01 nM in assay [1] and 0.12 ± 0.01 nM in assay [2].

Turning to `CC(C)N1CCN(C(=O)N[C@@H](Cc2ccccc2)C(=O)N[C@H](/C=C/S(=O)(=O)c2ccccc2)CCc2ccccc2)CC1` [SMDC-256123, (2S)-N-[(1E,3S)-1-(benzenesulfonyl)-5-phenylpent-1-en-3-yl]-2-{[(E)-4-(propan-2-yl)piperazine-1-carbonyl]amino}-3-phenylpropanamide], the 50% inhibitory concentration (IC50) is 0.11 ± 0.01 nM in assay [1] and 0.25 ± 0.07 nM in assay [2].

Take `CCCN1CCN(C(=O)N[C@@H](Cc2ccccc2)C(=O)N[C@H](/C=C/S(=O)(=O)c2ccccc2)CCc2ccccc2)CC1` [SMDC-256157, (2S)-N-[(1E,3S)-1-(benzenesulfonyl)-5-phenylpent-1-en-3-yl]-2-{[(E)-4-propylylpiperazine-1-carbonyl]amino}-3-phenylpropanamide]: the values for the IC50 in [1] and in assay [2] were 0.24 ± 0.03 nM and 0.42 ± 0.03 nM, respectively.

As for `O=C(N[C@H](/C=C/S(=O)(=O)c1ccccc1)CCc1ccccc1)[C@H](Cc1ccccc1)NC(=O)N1CCN(c2ccccc2)CC1` [SMDC-256158, (2S)-N-[(1E,3S)-1-(benzenesulfonyl)-5-phenylpent-1-en-3-yl]-2-{[(E)-4-phenylpiperazine-1-carbonyl]amino}-3-phenylpropanamide], the values for the IC50 in assay [1] and in [2] were 2.49 ± 0.34 nM and 2.69 ± 0.43 nM, respectively.

In general, IC90 refers to the concentration needed for an effect of 90%. As to `COCCN1CCN(C(=O)N[C@@H](Cc2ccccc2)C(=O)N[C@H](/C=C/S(=O)(=O)c2ccccc2)CCc2ccccc2)CC1` [SMDC-256159, (2S)-N-[(1E,3S)-1-(benzenesulfonyl)-5-phenylpent-1-en-3-yl]-2-{[(E)-4-(2-methoxyethyl)piperazine-1-carbonyl]amino}-3-phenylpropanamide], the IC50 in assay [1] is 0.07 ± 0.02 nM; in [2], 0.16 ± 0.02 nM; in assay [3], 650 ± 810 nM; in assay [4], < 480 nM; in assay [5], < 2260 nM; in [6], 650 nM. Besides, in assay [7], the IC90 came out at 7100 ± 7600 nM. In addition, in assay [8], the “90% reduction in viral yields, range over strains” value is <0.48 to 7.1 µM.

Turning to `O=C(N[C@H](/C=C/S(=O)(=O)c1ccccc1)CCc1ccccc1)[C@H](Cc1ccccc1)NC(=O)N1CCN(C2CCCC2)CC1` [SMDC-256161, (2S)-N-[(1E,3S)-1-(benzenesulfonyl)-5-phenylpent-1-en-3-yl]-2-{[(E)-4-cyclopentylpiperazine-1-carbonyl]amino}-3-phenylpropanamide], the IC50 in assay [1] is 0.25 ± 0.16 nM; in assay [2] it was 0.18 ± 0.01 nM.

On to `O=C(N[C@H](/C=C/S(=O)(=O)c1ccccc1)CCc1ccccc1)[C@H](Cc1ccccc1)NC(=O)N1CCN(CC2CC2)CC1` [SMDC-256162, (2S)-N-[(1E,3S)-1-(benzenesulfonyl)-5-phenylpent-1-en-3-yl]-2-{[(E)-4-(cyclopropylmethyl)piperazine-1-carbonyl]amino}-3-phenylpropanamide], for which the IC50 is 0.16 ± 0.03 nM in assay [1] and 0.1 ± 0.01 nM in assay [2].

On to `CN(C)C(=O)COC(=O)Cc1ccc(OC(=O)c2ccc(NC(=N)N)cc2)cc1` [camostat, camostat mesylate], for which the “effect on Ebola pseudovirus infection” value in assay [9] is given as “no impact”. In addition, the “effect on VSV-G driven viral entry” value in assay [10] is recorded as “no impact”.

Consider “(2S)-N-[(1E,3S)-1-(benzenesulfonyl)-5-phenylpent-1-en-3-yl]-2-{[(E)-4-tert-butylpiperazine-1-carbonyl]amino}-3-phenylpropanamide [SMDC-256160]”, for which the IC50 was 0.08 ± 0.01 nM in [1]; 0.11 ± 0.03 nM in assay [2]; < 80 nM in assay [3]; < 50 nM in [4]; < 130 nM in [5]; 320 nM in [6]. Also, the concentration for half-maximal inhibition (IC50) in assay [8] (read-out: IC50 values, range over strains and readouts) was 50 to 320 nM. For the same compound, the IC90 worked out at 490 nM in [7] and 12200 nM in assay [11]. Also, the “90% reduction in viral yields, range over strains” value in [8] is 0.49 to 12.2 µM.
